The test system of test [1] is IL-17A secretion by CD4+ cells. The test can be described thus: IL-17A secretion by activated CD4+ cells (HTRF). Type of test: cell-based. The conditions noted are these: 96 h; human CD4+ cells activated with anti-CD3 and anti-CD28, 4 days of incubation, inhibitors 1000 nM to 0.05 nM; read-out: IC50 hCD4/IL17. The protocol:
(§1) In the tables described above, the median inhibitory concentrations IC50 for the compounds belonging to formula (I) according to the invention have been given according to the following models:
This model allows measurement of the effect of inhibitors on IL-17A secretion by CD4+ cells. The cells are frozen CD4+ cells (STEMCELL, #70026), isolated from peripheral human blood and activated with anti-CD3 and anti-CD28 antibodies. The amount of IL-17a secreted is measured by the TR-FRET (kit HTRF® Human Interleukin 17A (Cisbio, #64H17PEC)) technology.
The cells are rapidly thawed, resuspended in their culture medium (RPMI inactivated 10% FCS) supplemented with soluble anti-CD28 antibodies and seeded (100 000 cells/well) in 96-well plates precoated with anti-CD3 antibodies. The cells are then treated with the ranges of inhibitors to be tested (from 1000 nM to 0.05 nM, 0.1% DMSO). After 4 days of incubation, the HTRF signal is measured using a microplate reader (λexcitation=337 nm, λemission=620/665 nm). The ratios obtained (665/620) are normalized relative to the positive control (cells activated with anti-CD3 and anti-CD28, 0.1% DMSO). The IC50 values are calculated from a 4-parameter logistic model using the XLFit software (IDBS).

In test [2] the target is T1, GAL4-RORγ (GAL4 DBD fused to the ROR gamma ligand-binding domain) (Homo sapiens, UniProt P51449).
T1 construct: expressed in transfected cells; host or cells: HG5LN (HeLa line with GAL4-responsive luciferase reporter)
T1 sequence (P51449 269-508 limits assumed): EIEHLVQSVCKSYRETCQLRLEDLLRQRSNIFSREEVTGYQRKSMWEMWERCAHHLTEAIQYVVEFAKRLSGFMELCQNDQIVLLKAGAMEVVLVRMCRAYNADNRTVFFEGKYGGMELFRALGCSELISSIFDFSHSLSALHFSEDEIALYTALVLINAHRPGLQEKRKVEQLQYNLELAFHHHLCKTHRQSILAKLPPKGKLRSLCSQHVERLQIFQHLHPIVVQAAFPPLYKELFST
The test can be described thus: GAL4-RORγ transactivation (luciferase reporter, HG5LN HeLa line). Type of test: cell-based. Particulars: HG5LN HeLa cells, 18 hours incubation, luciferase luminescence, read-out: IC50 hRORg.
Description: as §1
GAL4-RORγ Transactivation
The RORγ transactivation model was developed from the line HG5LN, which is a HeLa line that stably expresses a luciferase reporter gene controlled by a pentamer of the GAL4 recognition domain of yeast and of a β-globin promoter. The HG5LN line was stably transfected by the DNA-binding domain (DBD) of GAL4 fused to the ROR gamma ligand-binding domain (LBD). Molecules that inhibit the ROR gamma constitutive activity reduce the luciferase expression, thus leading to a reduction in the emitted luminescence.
The cells are seeded in 384-well plates (5000 cells in 45 μL/well of culture medium containing 10% fetal calf serum) and incubated for 4 hours at 37° C., 5% CO2. 5 μL of the test molecules (compounds described in the tables described above) are then added to each well and the plates are incubated for 18 hours at a temperature of 37° C. under 5% of CO2. 20 μL of luciferase substrate (Promega) are added to each well and the luminescence emitted is read by a microplate reader.
The luminescence units (“RLU”) are normalized by positive controls (“POS” containing a saturated concentration of N-(2,2,2-trifluoroethyl)-N-[4-[2,2,2-trifluoro-1-hydroxy-1-(trifluoromethyl)ethyl]phenyl])benzenesulfonamide and negative controls (“NEG” containing DMSO): % inhibition=((RLU−NEG)*100)/(POS−NEG). The IC50 values are calculated from a 4-parameter logistic model using the XLFit software (IDBS).

Regarding `CCc1ccc(N(CC(C)C)S(=O)(=O)c2ccc3c(cnn3CC3CCOCC3)c2)cc1` [Compound 39, N-(4-ethylphenyl)-N-isobutyl-1-((tetrahydro-2H-pyran-4-yl)methyl)-1H-indazole-5-sulfonamide], the IC50 in test [1] and in test [2] was 0.1 to 1 µM in each case.

Consider `CC(C)CN(c1ccc(N(C)C)cc1)S(=O)(=O)c1ccc2c(cnn2CC2CCOCC2)c1` [Compound 72, 1-(tetrahydropyran-4-ylmethyl)-1H-indazole-5-sulfonic acid (4-dimethylaminophenyl)isobutylamide], for which the IC50 in test [1] and in test [2] was 0.1 to 1 µM each time.

Regarding `COC(=O)c1ccc(N(CC(C)C)S(=O)(=O)c2ccc3c(cnn3CC3CCOCC3)c2)c(C)c1` [Compound 56, methyl 4-{isobutyl[1-(tetrahydropyran-4-ylmethyl)-1H-indazole-5-sulfonyl]amino}-3-methylbenzoate], the IC50 in test [1] was less than 0.1 µM; in test [2] it was 0.1 to 1 µM.

On to `Cc1cc(C)c(N(CC(C)C)S(=O)(=O)c2ccc3c(cnn3CC3CCOCC3)c2)cn1` [Compound 71, 1-(tetrahydropyran-4-ylmethyl)-1H-indazole-5-sulfonic acid (4,6-dimethylpyridin-3-yl)isobutylamide], for which the IC50 in test [1] and in test [2] was greater than 1 µM in each case.

For the compound `CCc1ccc(N(CC(C)C)S(=O)(=O)c2ccc3c(CN4CCOCC4)n[nH]c3c2)cc1` [Compound 64, 3-morpholin-4-ylmethyl-1H-indazole-6-sulfonic acid (4-ethylphenyl)isobutylamide], the IC50 in test [1] and in test [2] was less than 0.1 µM in each case.

Consider `CCc1ccc(N(CC(C)C)S(=O)(=O)c2ccc3c(cnn3Cc3ccncc3)c2)cc1` [Compound 36, N-(4-ethylphenyl)-N-isobutyl-1-(pyridin-4-ylmethyl)-1H-indazole-5-sulfonamide], for which the IC50 in test [1] is less than 0.1 µM; in test [2] it was 0.1 to 1 µM.

For the compound `CCc1ccc(N(CC(C)C)S(=O)(=O)c2ccc3c(CC4CCOCC4)n[nH]c3c2)cc1` [Compound 63, 3-(tetrahydropyran-4-ylmethyl)-1H-indazole-6-sulfonic acid (4-ethylphenyl)isobutylamide], the IC50 in test [1] and in test [2] was less than 0.1 µM in each case.

Take `CCc1ccc(N(C(CC)CC)S(=O)(=O)c2ccc3c(cnn3CC3CCOCC3)c2)cc1` [Compound 1, 1-(tetrahydropyran-4-ylmethyl)-1H-indazole-5-sulfonic acid (4-ethylphenyl)(1-ethylpropyl)amide]: the IC50 in test [1] and in test [2] was 0.1 to 1 µM in each case.

On to `CCc1ccc(N(CC(C)C)S(=O)(=O)c2ccc3c(cnn3CC3COC3)c2)cc1` [Compound 37, N-(4-ethylphenyl)-N-isobutyl-1-(oxetan-3-ylmethyl)-1H-indazole-5-sulfonamide], for which the IC50 in test [1] is less than 0.1 µM; in test [2] it was 0.1 to 1 µM.

The values above are taken from patent US10752617B2 (GALDERMA RESEARCH & DEVELOPMENT, priority 2014, dated 2020).
